{"source": "ChEMBL document CHEMBL3608289", "about": "“Miltirone Is a Dual Inhibitor of P-Glycoprotein and Cell Growth in Doxorubicin-Resistant HepG2 Cells” (J Nat Prod, 2015)", "key": {"HepG2 [1]": {"system": "HepG2", "test": "Induction of apoptosis in human doxorubicin-resistant HepG2 cells expressing p-gp assessed as increase in PARP cleavage after 24 hrs by Western blotting", "format": "functional, cell-based"}, "[2]": {"test": "Cytotoxicity against human Hep3B cells after 24 hrs by MTT assay in presence of doxorubicin", "format": "functional, cell-based, Hep 3B2"}, "HepG2 [3]": {"system": "HepG2", "test": "Induction of apoptosis in human HepG2 cells assessed as activation of caspase-3/8/9 after 24 hrs by Western blotting", "format": "functional, cell-based"}, "HepG2 [4]": {"system": "HepG2", "test": "Induction of oxidative stress in human doxorubicin-resistant HepG2 cells expressing p-gp assessed as decrease of GSH level per gram of protein at 25 uM after 24 hrs using DTNB by enzymatic kinetic method relative to control", "format": "functional"}, "HepG2 [5]": {"system": "HepG2", "test": "Induction of ROS generation in human HepG2 cells at 25 uM after 15 to 30 mins using H2DCFH dye by confocal microscopy in presence of PEG-SOD", "format": "functional, cell-based"}, "HepG2 [6]": {"system": "HepG2", "test": "Increase of SAPK/JNK phosphorylation in human doxorubicin-resistant HepG2 cells expressing p-gp at 1.56 to 25 uM by Western blot analysis", "format": "cell-based"}, "HepG2 [7]": {"system": "HepG2", "test": "Effect on nonphosphorylated p38 MAPK level in human HepG2 cells at 25 uM by Western blot analysis", "format": "ADME, cell-based", "settings": "hepg2, 25 µM"}, "[8]": {"target": "T1, MAP kinase p38 (Homo sapiens) (UniProt O15264+Q15759+Q16539+P53778)", "test": "Inhibition of p38 MAPK phosphorylation in human doxorubicin-resistant HepG2 cells expressing p-gp at 1.56 to 25 uM by Western blot analysis in presence of SB203580", "format": "cell-based"}, "[9]": {"target": "T1, MAP kinase p38 (Homo sapiens)", "test": "Inhibition of p38 MAPK phosphorylation in human HepG2 cells at 1.56 to 25 uM by Western blot analysis", "format": "cell-based"}, "HepG2 [10]": {"system": "HepG2", "test": "Induction of apoptosis in human HepG2 cells assessed as increase in PARP cleavage after 24 hrs by Western blotting", "format": "functional, cell-based"}, "HepG2 [11]": {"system": "HepG2", "test": "Cytotoxicity against human HepG2 cells after 24 hrs by MTT assay", "format": "functional, cell-based", "settings": "HepG2, 24 h"}, "HepG2 [12]": {"system": "HepG2", "test": "Induction of necrosis in human HepG2 cells assessed as LDH leakage at >50 uM after 24 hrs", "format": "functional, cell-based"}, "[13]": {"target": "T2, Mitogen-activated protein kinase; ERK1/ERK2 (Homo sapiens) (UniProt P27361+P28482)", "T2 sequence (P27361 whole entry, looked up)": "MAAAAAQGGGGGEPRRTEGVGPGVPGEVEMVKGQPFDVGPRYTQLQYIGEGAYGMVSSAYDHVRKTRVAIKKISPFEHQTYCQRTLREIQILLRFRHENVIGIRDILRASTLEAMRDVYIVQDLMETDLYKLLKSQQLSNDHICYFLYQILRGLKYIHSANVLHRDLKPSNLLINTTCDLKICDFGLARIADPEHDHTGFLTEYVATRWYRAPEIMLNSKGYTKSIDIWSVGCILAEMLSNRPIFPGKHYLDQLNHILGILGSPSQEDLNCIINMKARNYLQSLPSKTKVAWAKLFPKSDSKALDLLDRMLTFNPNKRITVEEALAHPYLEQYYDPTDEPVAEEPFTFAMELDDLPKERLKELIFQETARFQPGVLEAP", "T2 sequence (P28482 whole entry, looked up)": "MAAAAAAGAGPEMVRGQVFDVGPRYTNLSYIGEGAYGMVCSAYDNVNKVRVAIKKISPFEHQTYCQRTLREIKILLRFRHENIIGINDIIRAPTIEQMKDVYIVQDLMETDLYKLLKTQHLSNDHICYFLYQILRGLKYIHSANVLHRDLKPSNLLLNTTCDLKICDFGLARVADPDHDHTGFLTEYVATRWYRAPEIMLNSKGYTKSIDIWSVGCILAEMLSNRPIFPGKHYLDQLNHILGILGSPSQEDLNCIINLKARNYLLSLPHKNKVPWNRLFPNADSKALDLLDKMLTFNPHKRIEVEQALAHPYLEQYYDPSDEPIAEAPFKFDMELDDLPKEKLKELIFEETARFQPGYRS", "test": "Inhibition of ERK1/2 phosphorylation in human HepG2 cells at 1.56 to 25 uM by Western blot analysis", "format": "cell-based"}, "[14]": {"test": "Cytotoxicity against human Hep3B cells after 24 hrs by MTT assay", "format": "functional, cell-based, Hep 3B2"}, "HepG2 [15]": {"system": "HepG2", "test": "Effect on nonphosphorylated p38 MAPK level in human doxorubicin-resistant HepG2 cells expressing p-gp at 25 uM by Western blot analysis", "format": "ADME, cell-based", "settings": "hepg2, 25 µM"}, "HepG2 [16]": {"system": "HepG2", "test": "Increase of SAPK/JNK phosphorylation in human doxorubicin-resistant HepG2 cells expressing p-gp at 1.56 to 25 uM by Western blot analysis in presence of NAC", "format": "cell-based"}, "HepG2 [17]": {"system": "HepG2", "test": "Induction of apoptosis in human doxorubicin-resistant HepG2 cells expressing p-gp assessed as activation of caspase-3/8/9 at 12.5 after 24 hrs by Western blotting in presence of Z-VAD-FMK", "format": "functional, cell-based"}, "[18]": {"target": "T2, Mitogen-activated protein kinase; ERK1/ERK2 (Homo sapiens)", "test": "Inhibition of ERK1/2 phosphorylation in human HepG2 cells at 1.56 to 25 uM by Western blot analysis in presence of NAC", "format": "cell-based"}, "[19]": {"target": "T2, Mitogen-activated protein kinase; ERK1/ERK2 (Homo sapiens)", "test": "Inhibition of ERK1/2 phosphorylation in human doxorubicin-resistant HepG2 cells expressing p-gp at 1.56 to 25 uM by Western blot analysis", "format": "cell-based"}, "HepG2 [20]": {"system": "HepG2", "test": "Effect on nonphosphorylated SAPK/JNK level in human HepG2 cells at 25 uM by Western blot analysis", "format": "ADME, cell-based", "settings": "hepg2, 25 µM"}, "[21]": {"test": "Cytotoxicity against human PLC/PRF/5 cells after 24 hrs by MTT assay in presence of doxorubicin", "format": "functional, cell-based", "settings": "PLC-PRF-5, 24 h"}, "[22]": {"target": "T1, MAP kinase p38 (Homo sapiens)", "test": "Inhibition of p38 MAPK phosphorylation in human HepG2 cells at 1.56 to 25 uM by Western blot analysis in presence of NAC", "format": "cell-based"}, "HepG2 [23]": {"system": "HepG2", "test": "Induction of apoptosis in human HepG2 cells assessed as activation of caspase-3/8/9 at 12.5 after 24 hrs by Western blotting in presence of Z-IETD-FMK", "format": "functional, cell-based"}, "HepG2 [24]": {"system": "HepG2", "test": "Induction of apoptosis in human doxorubicin-resistant HepG2 cells expressing p-gp assessed as activation of caspase-3/8/9 at 12.5 after 24 hrs by Western blotting in presence of Z-LEHD-FMK", "format": "functional, cell-based"}, "HepG2 [25]": {"system": "HepG2", "test": "Cytotoxicity against human doxorubicin-resistant HepG2 cells expressing p-gp assessed as combination index after 24 hrs by MTT assay in presence of doxorubicin", "format": "functional"}, "HepG2 [26]": {"system": "HepG2", "test": "Effect on nonphosphorylated ERK1/ERK2 level in human doxorubicin-resistant HepG2 cells expressing p-gp at 25 uM by Western blot analysis", "format": "ADME, cell-based", "settings": "hepg2, 25 µM"}, "HepG2 [27]": {"system": "HepG2", "test": "Induction of necrosis in human doxorubicin-resistant HepG2 cells expressing p-gp assessed as LDH leakage at 25 uM after 24 hrs", "format": "functional, cell-based"}, "HepG2 [28]": {"system": "HepG2", "test": "Induction of oxidative stress in human doxorubicin-resistant HepG2 cells expressing p-gp assessed as decrease of GSH level per gram of protein at 6.25 to 25 uM after 24 hrs using DTNB by enzymatic kinetic method relative to control", "format": "functional, cell-based"}, "HepG2 [29]": {"system": "HepG2", "test": "Effect on nonphosphorylated SAPK/JNK level in human doxorubicin-resistant HepG2 cells expressing p-gp at 25 uM by Western blot analysis", "format": "ADME, cell-based", "settings": "hepg2, 25 µM"}, "HepG2 [30]": {"system": "HepG2", "test": "Induction of apoptosis in human HepG2 cells assessed as activation of caspase-3/8/9 at 12.5 after 24 hrs by Western blotting in presence of trolox", "format": "functional, cell-based"}}, "note": "Calls of active or inactive are those of the source. The rule behind the calls is not given here.", "data": [{"smiles": "CC(C)C1=Cc2ccc3c(c2C(=O)C1=O)CCCC3(C)C", "note": "[MILTIRONE]", "values": [{"measurement": "Activity", "setting": "HepG2 [1]", "result": "Active"}, {"measurement": "EC50", "setting": "[2]", "result": 6.6, "unit": "µM"}, {"measurement": "Activity", "setting": "HepG2 [3]", "result": "Active"}, {"measurement": "Activity", "setting": "HepG2 [4]", "result": 1.2, "unit": "µmol"}, {"measurement": "Activity", "setting": "HepG2 [5]", "result": "inactive"}, {"measurement": "Activity", "setting": "HepG2 [6]", "result": "Active"}, {"measurement": "Activity", "setting": "HepG2 [7]", "result": "Non-toxic"}, {"measurement": "inhibition", "setting": "[8]", "result": "inactive"}, {"measurement": "inhibition", "setting": "[9]", "result": "Active"}, {"measurement": "Activity", "setting": "HepG2 [10]", "result": "Active"}, {"measurement": "EC50", "setting": "HepG2 [11]", "result": 7.1, "unit": "µM"}, {"measurement": "Activity", "setting": "HepG2 [12]", "result": "Active"}, {"measurement": "inhibition", "setting": "[13]", "result": "Active"}, {"measurement": "EC50", "setting": "[14]", "result": 14.8, "unit": "µM"}, {"measurement": "Activity", "setting": "HepG2 [15]", "result": "Non-toxic"}, {"measurement": "inhibition", "setting": "HepG2 [16]", "result": "inactive"}, {"measurement": "Activity", "setting": "HepG2 [17]", "result": "inactive"}, {"measurement": "inhibition", "setting": "[18]", "result": "inactive"}, {"measurement": "inhibition", "setting": "[19]", "result": "Active"}, {"measurement": "Activity", "setting": "HepG2 [20]", "result": "Non-toxic"}, {"measurement": "EC50", "setting": "[21]", "result": 17.4, "unit": "µM"}, {"measurement": "inhibition", "setting": "[22]", "result": "inactive"}, {"measurement": "Activity", "setting": "HepG2 [23]", "result": "inactive"}, {"measurement": "Activity", "setting": "HepG2 [24]", "result": "inactive"}, {"measurement": "CI", "setting": "HepG2 [25]", "result": 1.56}, {"measurement": "Activity", "setting": "HepG2 [26]", "result": "Non-toxic"}, {"measurement": "Activity", "setting": "HepG2 [27]", "result": "inactive"}, {"measurement": "Activity", "setting": "HepG2 [28]", "result": "Active"}, {"measurement": "Activity", "setting": "HepG2 [29]", "result": "Non-toxic"}, {"measurement": "Activity", "setting": "HepG2 [30]", "result": "inactive"}]}]}
